Test results: patent US20060211747A1, “Methods of screening for compounds which inhibit the activity of Cdc34 in a zinc-mediated manner and compounds obtained by this method” (priority 2004, published 2006)
Where two headings read alike, the source gives them in different places.

Legend:
Type in all cases: biochemical
[1] = biological target: T1, Cdc34-FLAG (ubiquitin conjugating enzyme Cdc34, SwissProt P49427) (Homo sapiens, UniProt P49427); experiment: Cdc34 thioester assay (time resolved fluorescence)
T1 construct: GST with Factor Xa cleavage site (N, cleaved yes); made in house; host or cells: baculovirus, High Five insect cells
T1 sequence (P49427 1-236): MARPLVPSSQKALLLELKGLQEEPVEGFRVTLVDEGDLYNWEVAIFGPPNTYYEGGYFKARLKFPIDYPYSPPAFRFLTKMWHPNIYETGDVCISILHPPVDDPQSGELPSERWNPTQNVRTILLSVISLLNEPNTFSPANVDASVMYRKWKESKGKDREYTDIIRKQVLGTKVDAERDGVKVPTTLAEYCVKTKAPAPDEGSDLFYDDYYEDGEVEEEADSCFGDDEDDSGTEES
Experimental: (§1) Cdc34 thioester assay: Here, we describe an assay, based on time resolved fluorescence, to monitor the formation of the thioester intermediate between ubiquitin and the ubiquitin-conjugating enzyme Cdc34. The assay is aimed at screening for inhibitors of Cdc34 thioester formation and requires Eu-labelled ubiquitin (Eu—Ub), GST-E1 and Cdc34-FLAG. • Mix: In non-absorbing plates • 10 μl Test compound 5×conc. in 5% DMSO • 30 μl Cdc34-FLAG (20.8 nM) in 1×TEB (no ATP) • Incubate 10 min at RT • Add: 10 μl Eu—Ub (31.2 nM), GST-E1 (125 nM) in 1×TEB+ATP (Pre-incubated 10 min at RT). • Incubate 30 min at RT • Final Concentrations: Test compound 50/12.5/3.13/0.78/0.2/0.05 μM • Cdc34-FLAG 12.5 nM • Eu—Ub 6.25 nM • GST-E1 25 nM • Transfer: 45 μl To streptavidin coated plate containing 50 μl / well Superblock−TBS+1 mM NEM+100 nM biotinylated anti-FLAG antibody • Incubate 2 hours at RT • Wash 6×200 μl/well with 1× Wallac Wash Solution • Add 200 μl/well Wallac Enhancer Solution • Mix 5 min • Read • Positive Control: no test compound, 10 μl 5% DMSO • Negative Control: no Cdc34-FLAG, 30 μl 1×TEB (no ATP)
(§2) The IC50 is defined as 50% inhibition of E2-ubiquitin thioester formation, estimated as the difference in fluorescence obtained in the presence or absence of E2 (Cdc34, UbcH5 or UbcH10).

[2] = biological target: T2, UbcH5-Strep (SwissProt P51668) (Homo sapiens, UniProt P51668); experiment: UbcH5 thioester assay; conditions: thioester formation; n=2
T2 construct: GST with Factor Xa cleavage site (N, cleaved yes); made in house; host or cells: baculovirus, High Five insect cells
T2 sequence (P51668 whole entry): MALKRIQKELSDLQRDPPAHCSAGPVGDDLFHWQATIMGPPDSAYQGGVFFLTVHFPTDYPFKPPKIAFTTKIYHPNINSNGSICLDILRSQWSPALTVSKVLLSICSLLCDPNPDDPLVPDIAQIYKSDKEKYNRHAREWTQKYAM
Excerpt: (§3) The assays measuring the formation of the thioester intermediate between ubiquitin and the ubiquitin conjugating enzymes Cdc34 (SwissProt P49427) UbcH5 (SwissProt P51668) and UbcH10 (SwissProt O00762) are described below.
(§4) UbcH5 and UbcH10 thioester assays: Here, we describe an assay, based on time resolved fluorescence, to monitor the formation of the thioester intermediate between ubiquitin and the ubiquitin-conjugating enzymes UbcH5, respectively UbcH10. […]

[3] = biological target: T3, UbcH10-Strep (SwissProt O00762) (Homo sapiens, UniProt O00762); experiment: UbcH10 thioester assay; conditions: thioester formation; n=2
T3 construct: GST with Factor Xa cleavage site (N, cleaved yes); made in house; host or cells: baculovirus, High Five insect cells
T3 sequence (O00762 1-179): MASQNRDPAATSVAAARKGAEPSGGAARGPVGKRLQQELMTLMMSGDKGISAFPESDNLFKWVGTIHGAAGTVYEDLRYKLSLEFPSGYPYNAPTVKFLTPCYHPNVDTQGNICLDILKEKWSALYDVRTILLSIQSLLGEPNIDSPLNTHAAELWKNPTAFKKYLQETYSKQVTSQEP
Excerpt: as §3, §4

Cdc34-FLAG = biological target: T4, Cdc34-FLAG (Homo sapiens, UniProt P49427); experiment: Cdc34 thioester assay in the presence of the chelating agents phenantroline or TSQ (zinc depletion / re-addition); conditions: for IC50: read-out: Compound I IC50
T4 construct: GST with Factor Xa cleavage site (N, cleaved yes); made in house; host or cells: baculovirus, High Five insect cells
T4 sequence (P49427 1-236): T1 sequence (P49427 1-236)
Experimental: as §1
Cdc34 thioester assay in the presence of the chelating agents phenantroline or TSQ In order to deplete Cdc34 from zinc prior to measuring the inhibitory activity of the test compounds, the Cdc34 thioester assay described above was modified as follows. • Mix: In non-absorbing plates on ice • 10 μl Cdc34-FLAG (62.5 nM) in 1×TEB (no ATP) • 10 μl 5× Phenanthroline/5×TSQ/buffer • 10 μl 5×ZnCl2/buffer • Incubate 10 min on ice • Add: 10 μl Test compound 5×conc. in 5% DMSO • 10 μl Eu—Ub (31.2 nM), GST-E1 (125 nM) in 1×TEB+ATP (Pre-incubated 10 min at RT). • Incubate 30 min at RT • Phenanthroline (Sigma # P-9375) • TSQ (Molecular Probes # M-688)
as §2

SMILES: Cc1cc(C)n(C(=O)c2cn3c(C)csc3n2)n1 [Compound I, (3,5-dimethyl-pyrazol-1-yl)-(3-methyl-imidazo[2,1-b]thiazol-6-yl)-methanone]
- IC50 ([1]; thioester formation, mean of n=5, read-out: Cdc34-FLAG IC50): 0.39 µM
- IC50 [2]: > 50 µM
- IC50 [3]: > 50 µM
- IC50 (Cdc34-FLAG; 1,10-Phenanthroline 0 μM, ZnCl2 0 nM): 0.74 µM
- IC50 (Cdc34-FLAG; 1,10-Phenanthroline 0 μM, ZnCl2 100 nM): 0.55 µM
- IC50 (Cdc34-FLAG; 1,10-Phenanthroline 0 μM, ZnCl2 200 nM): 0.36 µM
- IC50 (Cdc34-FLAG; 1,10-Phenanthroline 2 μM, ZnCl2 0 nM): 1.4 µM
- IC50 (Cdc34-FLAG; 1,10-Phenanthroline 2 μM, ZnCl2 100 nM): 0.64 µM
- IC50 (Cdc34-FLAG; 1,10-Phenanthroline 2 μM, ZnCl2 200 nM): 0.71 µM
- IC50 (Cdc34-FLAG; 1,10-Phenanthroline 10 μM, ZnCl2 0 nM): 8.8 µM
- IC50 (Cdc34-FLAG; 1,10-Phenanthroline 10 μM, ZnCl2 100 nM): 4.6 µM
- IC50 (Cdc34-FLAG; 1,10-Phenanthroline 10 μM, ZnCl2 200 nM): 1.38 µM
- inhibitory activity on Cdc34 thioester formation (Cdc34-FLAG; Cdc34 pretreated with 50 μM phenanthroline (FIG. 3)): completely abolished
- IC50 (Cdc34-FLAG; TSQ 0 μM, ZnCl2 0 nM): 0.64 µM
- IC50 (Cdc34-FLAG; TSQ 0 μM, ZnCl2 100 nM): 0.6 µM
- IC50 (Cdc34-FLAG; TSQ 0 μM, ZnCl2 200 nM): 0.7 µM
- IC50 (Cdc34-FLAG; TSQ 2 μM, ZnCl2 0 nM): 4.2 µM
- IC50 (Cdc34-FLAG; TSQ 2 μM, ZnCl2 100 nM): 0.95 µM
- IC50 (Cdc34-FLAG; TSQ 2 μM, ZnCl2 200 nM): 1.3 µM
- IC50 (Cdc34-FLAG; TSQ 10 μM, ZnCl2 0 nM): 10.6 µM
- IC50 (Cdc34-FLAG; TSQ 10 μM, ZnCl2 100 nM): 3.3 µM
- IC50 (Cdc34-FLAG; TSQ 10 μM, ZnCl2 200 nM): 0.6 µM
- effect of phenantroline on inhibitory activity of the compounds (Cdc34-FLAG; compound added to Cdc34 before phenantroline (data not shown)): failed to abolish the inhibitory activity

SMILES: Cc1cc(C)n(C(=O)c2cn3ccsc3n2)n1 [Compound II, (3,5-Dimethyl-pyrazol-1-yl)-imidazo[2,1-b]thiazol-6-yl-methanone]
- IC50 ([1]; read-out: IC50 values as determined in the Cdc34 thioester assays): ≤ 1 µM

SMILES: CCCc1csc2nc(C(=O)n3nc(C)cc3C)cn12 [Compound V, (3,5-dimethyl-pyrazol-1-yl)-(3-propyl-imidazo[2,1-b]thiazol-6-yl)-methanone]
- IC50 [2]: > 50 µM
- IC50 [3]: > 50 µM

SMILES: c1cnc2c(c1)ccc1cccnc12 [phenathroline, 1,10-Phenanthroline, reference compound]
- effect per se on the ability of Cdc34 to undergo thioester formation with ubiquitin (Cdc34-FLAG; FIG. 3): does not affect per se
